According to patent publication US20030105167A1, “Treatment of opthalmic diseases” (priority 2001, published 2003):

What was measured:
[1] = tested on: retinal ganglion cells; test: Survival of axotomized retinal ganglion cells after intraorbital optic nerve transection; type: in vivo; conditions: ovarectomized adult female rats, twice daily subcutaneous injection in oil, two days prior to eight days following transection; counted after an additional 4 weeks
Experimental: The drugs were dissolved in sesame oil (Penta) at 100 ug/ml. Adult female rats to be used in these experiments were first ovarectomized. Rats were then subjected to intraorbital transection of the optic nerve, a procedure that leads to progressive degeneration of the majority of retinal ganglion cells. Cells survive for a few days and then die abruptly such that by one week only 50% survive and by two weeks only 10% survive. Axotomy is well known to lead to the death of retinal ganglion cells by an apoptotic process, causing classical cytochemical alterations characteristic of programmed cell death.
From two days prior to eight days following optic nerve transactions, 17β-estradiol, ent-17β-estradiol, or appropriate amount of vehicle control sample was administered to the animals by a twice daily subcutaneous injection of compound in oil at 100 ug/ml (see above), such that the final concentration delivered was 100 ug/. If the protective compounds to be used are in a water soluble formulation, they can, alternatively, be delivered by a single intravitreal injection. […]
After an additional 4 weeks, the retinal ganglial cells were labeled by retrograde staining with the carbocyanine dye, 4Di-10Asp, which was applied to the nerve stump. Three days later animals were sacrificed and surviving retinal cells were counted in retinal whole mounts. […]

[2] = tested on: cell culture models; conditions: doses as low as; cited from earlier work
[3] = tested on: Transformed rat retinal ganglion cells (RGC-5 cells); test: FRET assay of Ca+2-induced ΔΨm collapse in transformed retinal ganglion cells; type: cell-based; conditions: FIG. 2; for extent of mitochondrial failure at the highest Ca+2 concentration: P<0.05 via ANOVA; for extent of mitochondrial collapse compared to buffer-treated controls: compound 5 minutes prior to Ca+2
Text: Transformed rat retinal ganglion cells (RGC-5 cells) were produced by transforming Sprague-Dawley rat retinal cells from postnatal day I rats with replication incompetent Ψ2 EIA virus and was originally established to help illuminate the basic mechanisms underlying RGC apoptosis in glaucoma (Krishnomoorthy, et al., 2001). The cells express the specific cellular marker, Thy-1, consistent with their retinal ganglion cell origin. Confirmation of Thy-1 expression was made by RT-PCR, immunocytochemistry and immunoblot analysis. […] The toxicity response with glutamate has an EC50 of about 50 uM. Importantly, transformed RGC cells undergo TUNEL-positive apoptotic-mediated cell death upon serum deprivation, indicating the presence of classical apoptosis pathways induced by mitochondrial dysfunction and/or failure.
Possible mitochondrial responses of our compounds are evaluated in intact RGC-5 cells using an assay for mitochondrial ΔΨm which is based on fluorescence energy transfer (FRET) between two dyes that colocalize to the mitochondria. The FRET assay circumvents the confounding variables of plasma membrane potential and the low flourcscence efficiency typical of single potentiometric dyes (Dykens and Stout, 2001). Transformed retinal ganglion cells (RGC-5) were plated at a concentration of 60K cells/well twenty-four hours prior to the experiment. The cells were permeabilized in place with 0.08% digitonin. Cells were exposed to 17β-estradiol, 17α-estradiol, and a non-hormonal PPC, Compound H (see Example 5), for 5 minutes prior to the addition of Ca^+2.
The excitation dye in the FRET ΔΨm assay is nonyl acridine orange (NAO). NAO is an exceptionally selective stain for cardiolipin, a lipid found intracellularly almost exclusively (>99%) in the mitochondrial inner membrane. Its staining of the inner membrane is independent of ΔΨm. The second dye is tetramethylrhodamine (TMR), a potentiometric dye that is sequestered into the mitochondrial matrix as a Nernstian function of ΔΨm and imposed concentration. It is the specificity of NAO staining for cardiolipin, combined with the absolute prerequisite for close proximity of both dyes, that allows this FRET assay to report ΔΨm without interference from plasma membrane potential.
Because uptake and retention of TMR depends on ΔΨm, at a given dye concentration, the extent of quenching of NAO by TMR reflects the magnitude of ΔΨm. Dissipation of ΔΨm, in response to […], elevated Ca+2 load, or respiratory […], results in efflux of TMR from the mitochondrion. The corresponding loss of proximity abolishes quenching of NAO, so that loss of ΔΨm is detected as an increase in NAO fluorescence.

[4] = tested on: SHSY-5Y neuroblastoma cells; test: FRET assay of Ca+2-induced mitochondrial membrane potential (ΔΨm) collapse in neuroblastoma cells; type: cell-based; conditions: FIG. 1; right shift of dose response curve compared to control
Experimental: With reference to FIG. 1, mitochondria rapidly take up exogenous Ca^+2 to a maximum value before undergoing an irreversible loss of ΔΨm. ΔΨm was monitored after exposure to Ca^+2 concentrations ranging from 0 to 50 uM using a fluorescence resonance energy transfer (FRET) assay (Dykens and Stout, 2001). Cells were preincubated with 17β-estradiol and 17α-estradiol at 0.5 uM for 2.5 hrs. prior to Ca^+2 challenge, which was imposed by adding Ca^+2 directly to cells that had been permeabilized with digitonin (0.008%) final concentration, 5 min). The response, calculated as area under the curve, was plotted versus log Ca^+2 concentration using sigmoid regression analysis.
The excitation dye in the FRET ΔΨm assay is nonyl acridine orange (NAO). NAO is an exceptionally selective stain for cardiolipin, a lipid found intracellularly almost exclusively (>99%) in the mitochondrial inner membrane. Its staining of the inner membrane is independent of ΔΨm. […]
Because uptake and retention of TMR depends on ΔΨm, at a given dye concentration, the extent of quenching of NAO by TMR reflects the magnitude of ΔΨm. […] The corresponding loss of proximity abolishes quenching of NAO, so that loss of ΔΨm is detected as an increase in NAO fluorescence.

[5] = tested on: retinal ganglion layer; conditions: administered prior to the insult; several days following reperfusion; cited from earlier work
[6] = tested on: mouse HT-22 hippocampal cells; test: Protection against glutamate toxicity, calcein AM viability; type: cell-based; conditions: glutamate 10 mM, 16 hours, representative study; read-out: Calculated EC50 for protection of cell viability
Experimental: For instance, in this study, mouse HT-22 hippocampal cells were cultured in DMEM supplemented with 10% fetal calf serum. Cells were plated and simultaneously treated with glutamate (10 mM) and one of the test compounds individually, for instance compound H (also referred to as Compound 4565 in FIG. 2 and one of many protective PPCs disclosed in PCT publications WO02/36605 and WO00/63228), below or positive control 17β-estradiol (E), at various doses between 10 nM and 10 µM. After 16 hours, cell viability was determined using the calcein AM fluorescence (Excitation/Emission 485/530 […]) in a Bio-Tex Microplate Fluorescence Reader.

[7] = tested on: Trabecular meshwork cells; test: Survival of primary trabecular meshwork cells under toxic conditions (live-dead dyes); type: cell-based; conditions: hydrogen peroxide 100 uM, 24 hours, compound 2nM
Experimental: Trabecular meshwork cells used here were grown from fresh explants obtained from normal donors according to the procedures described in Agarwal et al., (1999) Exp Eye Res., Vol. 68, pp. 583 90 and Hogg et al., (2000) Invest Ophthalmol Vis. Sci., Vol. 41, pp. 1091-8. Cells were toxic conditions by exposure to hydrogen peroxide at 100 uM for 24 hours, which typically kills at least 50% of cells. With different batches of cells, the hydrogen peroxide concentration necessary to obtain 50% cell death frequently needs to be determined empirically. Trabecular cell viability was assessed using commercially available live-dead dyes. Other stains such as stains for DNA fragmentation or annexin binding are also suitable.
Compounds C and D, above, were initially dissolved at lmg/ml in absolute ethanol and diluted in culture medium to a final concentration of 2nM. To control for possible ethanol effects in the treated wells, all batches of media used here as were supplemented with absolute ethanol at appropriate concentrations. Cultured trabecular cells were incubated under toxic conditions with either compound C, compound D or no compound added for a period of 24 hours. Trabecular cell viability was assessed using commercially available live-dead dyes.

[8] = tested on: Human retinal pigment epithelial cells (RPE340 cells); test: Survival of retinal pigment epithelial cells under hyperoxia (Trypan blue exclusion); type: cell-based; conditions: 40% O2 hyperoxia, 5 days, compound 2 nM
Experimental: Human retinal pigment epithelial cells (RPE340 cells) were grown and subjected to conditions of hyperoxia according to Honda et al., (2001) Invest Ophthalmol Vis. Sci., Vol. 42, pp. 2139-44. The cells were subjected to either 40% O2 or 20% O2 (control) for the duration of the experiment. These conditions are known to induce apoptotic cell death.
Compounds A and B, above, were initially dissolved at 1 mg/ml in absolute ethanol and diluted in culture medium to a final concentration of 2 nM. To control for possible ethanol effects in the treated wells, all batches of media used here were supplemented with absolute ethanol at appropriate concentrations. Cells were incubated under hyperoxic conditions with either compound A, compound B or no compound added for a period of 5 days. Effects on cell viability and growth were monitored by Trypan blue exclusion.

[9] = tested on: Transformed rat retinal ganglion cells (RGC-5 cells); conditions: read-out: EC50 of toxicity response; cited from earlier work

C[C@@]12CC[C@H]3c4ccc(O)cc4CC[C@@H]3[C@H]1CC[C@H]2O (single isomer, unassigned; ent-17) [ent-17β-estradiol]
number of surviving retinal ganglial cells compared to the controls [1]: 3 fold

C[C@]12CC[C@@H]3c4ccc(O)cc4CC[C@H]3[C@@H]1CC[C@H]2O [17α-estradiol]
dose giving substantial cytoprotection [2]: 0.2 nM | extent of mitochondrial failure at the highest Ca+2 concentration [3]: significantly lowered | extent of mitochondrial collapse compared to buffer-treated controls [3]: moderated | amount of Ca+2 required to induce ΔΨm collapse [4]: substantially increase

C[C@]12CC[C@@H]3c4ccc(O)cc4CC[C@H]3[C@@H]1CC[C@@H]2O [17β-estradiol]
dose giving substantial cytoprotection [2]: 0.2 nM | number of surviving retinal ganglial cells compared to the controls [1]: 3 fold | extent of mitochondrial failure at the highest Ca+2 concentration [3]: significantly lowered | extent of mitochondrial collapse compared to buffer-treated controls [3]: moderated | cell density in the retinal ganglion layer [5]: significantly higher | amount of Ca+2 required to induce ΔΨm collapse [4]: substantially increase | EC50 [6]: 2.2 µM

C[C@]12CC[C@@H]3c4cc(C56CC7CC(CC(C7)C5)C6)c(O)cc4CC[C@H]3[C@@H]1CCC2=O [C, 2-(1-Adamantyl)-3-hydroxyestra-1,3, 5 (10)-trien-17-one]
survival of trabecular cells [7]: significantly improve survival

CC(C)(C)c1cc2c(cc1O)CC[C@@H]1[C@@H]2CC[C@]2(C)C(=O)CC[C@@H]12 [D, 2-(1-tertbutyl)-3-hydroxyestra-1,3, 5 (IO)-trien-17-one]
survival of trabecular cells [7]: significantly improve survival

C[C@]1(CO)CC[C@@H]2c3ccc(O)cc3CC[C@H]2C1 [compound A, [2S-(2a, 4aα, 10aβ)]-1,2,3,4,4a,9,10,10a-octahydro-7-hydroxy-2-methyl-2-phenanthrenemethanol]
protection from cell death [8]: protect these cells from cell death

C[C@]1(C=O)CC[C@@H]2c3ccc(O)cc3CC[C@H]2C1 [compound B, [2S-(2a, 4aα, 10aβ)]-1,2,3,4,4a, 9, 10, 10a-octahydro-7-hydroxy-2-methyl-2-phenanthrenecarboxaldehyde]
protection from cell death [8]: protect these cells from cell death

N[C@@H](CCC(=O)O)C(=O)O [glutamate]
EC50 [9]: ~50 µM
